The target of one experiment is T1, OR11A1 (Homo sapiens, UniProt Q9GZK7).
T1 construct: expressed in transfected cells; host or cells: HEKOlf (HEK293 stably expressing human Galpha-olf and bovine CNGA2)
T1 sequence (Q9GZK7 1-315): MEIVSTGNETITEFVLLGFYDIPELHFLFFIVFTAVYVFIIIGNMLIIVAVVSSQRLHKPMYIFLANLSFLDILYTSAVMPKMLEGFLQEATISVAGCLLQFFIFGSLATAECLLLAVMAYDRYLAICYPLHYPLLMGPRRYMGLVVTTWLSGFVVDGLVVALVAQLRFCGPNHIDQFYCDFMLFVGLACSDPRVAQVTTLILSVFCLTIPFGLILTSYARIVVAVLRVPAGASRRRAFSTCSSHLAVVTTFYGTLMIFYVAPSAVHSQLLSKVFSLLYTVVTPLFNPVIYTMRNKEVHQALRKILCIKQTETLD
As to the kind of experiment: CRE-luciferase reporter assay in HEKOlf cells transiently transfected with OR11A1. Format: cell-based. The procedure:
(§1) The experiments were performed using a HEK293 cell line (deposited at the ATCC under accession n° CRL-1573) stably expressing the Gαolf G-protein and the cyclic nucleotide gated ion channel A2 subunit (CNGA2) (herein called HEKOlf). As described by Shirokova et al., 2005, the human Gαolf cDNA was cloned into the mammalian expression vector pPuro and cDNA for the bovine cyclic nucleotide gated ion channel A2 (CNGA2) subunit was cloned into the mammalian expression vector pcDNA3. Both constructs were transfected using Lipofectamine2000 (Invitrogen) following the manufacturer's instructions. Cellular clones stably expressing Gαolf and CNGA2 were obtained by antibiotic selection with 0.5µg/ml Puromycin and 200µg/ml Geneticin.
All odorants were stored in the dark at 4°C upon delivery. They were prepared at 100mM stock solutions using DMSO as a solvent and stored at -20°C. On the day of the experiment the different stock solutions were directly diluted in the assay buffer (Tyrode's buffer) having the following composition: 5mM KCI, 130mM NaCl, 2mM CaCl2, 5mM NaHCO3, 1mM MgCl2, 20mM HEPES, pH7.4.
(§2) All transient transfections were performed with Lipofectamine 2000 (Invitrogen) according to the manufacturer's protocol. 10µl Lipofectamine 2000 were diluted in 500 µl DMEM and incubated for 5 minutes at room temperature. At the same time, 3µg of plasmid DNA were diluted in 500µl DMEM and added to the Lipofectamine 2000 mix to obtain a final volume of 1000µl. After incubation for a further 30 minutes at room temperature, the DNA-Lipofectamine complex was added to 1000µl of a cell suspension containing 1.600.000 cells/ml. Subsequently, 25µl per well of the complete mixture were seeded in black 384 well polystyrene assay plates. 25µl DMEM containing 20% FBS were added to each well 3 hours post-transfection.
(§3) The cDNAs for all olfactory receptors and an empty control vector were co-transfected with pGL4.29 (Promega). The pGL4.29 vector contains a cyclic adenosine monophosphate (cAMP) response element (CRE) that drives the transcription of the luciferase reporter gene luc2P (Photinus pyralis). luc2P is a synthetically-derived luciferase sequence with humanized codon optimization that is designed for high expression and reduced anomalous transcription.
In this assay, the interaction of an odorant with its cognate olfactory receptor leads to the activation of the human Gαolf G-protein. Gαolf is a stimulatory G-protein (Gαs) and activates adenylate cyclase, which converts adenosine triphosphate (ATP) into cAMP. Therefore, the activity of the transcribed luciferase can be used as an indication of olfactory receptor activation. 24 hours post-transfection the medium was removed from the transfected cells and 30 µl Tyrode's buffer containing the diluted odorants were added and incubated for 6 hours at 37°C. The cells were then transferred into an automated fluorometric imaging plate reader (FLIPR^TETRA, Molecular Devices). Subsequently, 25µl of a mixture composed of Triton X-100 and luciferin (1:1) were added. The addition of this mixture led to cell lyses and allowed interaction of the luciferase with its substrate luciferin resulting in a detectable emission of light.
The data obtained from different well replicates were analyzed with Excel, ScreenWorks, and SigmaPlot 10. The responses of each receptor to the odorants were divided by the mean responses of the receptor towards Tyrode's buffer (fold of change FOC1). The specificity of FOC1 was checked by comparing with a second FOC (FOC2) obtained by stimulating a control sample, consisting in an empty expression vector, with the same odorants and Tyrode's buffer. The mean and standard deviation of the resulting fold of change values were calculated and plotted in vertical bar charts or concentration-response curves fitted by the SigmaPlot 10 software.

The subject of experiment [1] is seven other OR11A1-related olfactory receptors. As to the kind of experiment: CRE-luciferase reporter assay on OR11A1 related receptors. Format: cell-based, human. The conditions noted are these: 10/30/100 µM. The procedure:
as §1, §2, §3
In this assay, the interaction of an odorant with its cognate olfactory receptor leads to the activation of the human Gαolf G-protein. Gαolf is a stimulatory G-protein (Gαs) and activates adenylate cyclase, which converts adenosine triphosphate (ATP) into cAMP. Therefore, the activity of the transcribed luciferase can be used as an indication of olfactory receptor activation. […] The cells were then transferred into an automated fluorometric imaging plate reader (FLIPR^TETRA, Molecular Devices). […]
(§4) The data obtained from different well replicates were analyzed with Excel, ScreenWorks, and SigmaPlot 10. […] The mean and standard deviation of the resulting fold of change values were calculated and plotted in vertical bar charts or concentration-response curves fitted by the SigmaPlot 10 software. […]

Another experiment deals with T2, OR11L1 (Homo sapiens, UniProt Q8NGX0).
T2 construct: expressed in transfected cells; host or cells: HEKOlf (HEK293 stably expressing human Galpha-olf and bovine CNGA2)
T2 sequence (Q8NGX0 1-322): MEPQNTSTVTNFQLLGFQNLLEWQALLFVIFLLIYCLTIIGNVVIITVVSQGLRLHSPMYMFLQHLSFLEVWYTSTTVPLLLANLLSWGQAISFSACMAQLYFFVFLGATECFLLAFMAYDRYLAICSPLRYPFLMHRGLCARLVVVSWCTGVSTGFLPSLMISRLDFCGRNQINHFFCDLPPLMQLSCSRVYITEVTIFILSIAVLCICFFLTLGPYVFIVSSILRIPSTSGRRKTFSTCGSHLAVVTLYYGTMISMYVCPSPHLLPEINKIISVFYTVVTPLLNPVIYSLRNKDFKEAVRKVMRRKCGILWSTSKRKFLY
Nature of the experiment: CRE-luciferase reporter assay in HEKOlf cells transiently transfected with OR11L1. The conditions noted are these: Example 3; 10/30/100 µM. Format: cell-based. The procedure:
as §1
All odorants were stored in the dark at 4°C upon delivery. […]
In this assay, the interaction of an odorant with its cognate olfactory receptor leads to the activation of the human Gαolf G-protein. […] The cells were then transferred into an automated fluorometric imaging plate reader (FLIPR^TETRA, Molecular Devices). […]
as §4

With `C[C@H]1CC[C@@]2(O)C(C)(C)[C@@H]3CC[C@@]2(C)[C@H]1C3` [Patchouli alcohol], the “activation of OR11A1” value on OR11A1 (Example 3, 10/30/100 µM) was “strongly activated”; at OR11A1 (Example 4, 3, 10 and 30 µM (Figure 5)), “activated”. It took 12.1 ± 1.7 µM to reach a half-maximal effect at OR11A1 (Example 4, Table 5, 0.03-100 µM tested) (EC50). The “Potency and efficacy on OR11A1 (comparison between odorants)” value on OR11A1 (Example 4, 0.1 to 100 µM (Figure 6)) is recorded as “comparable”. Moreover, the fold of change result in experiment [1] (Example 3, figure 4) is listed as “around 1”. The “response of seven other OR11A1-related olfactory receptors” value in experiment [1] (Example 3) is “none of the seven other OR11A1-related olfactory receptors responded”. Besides, the “response in cells transfected with OR11L1” value on OR11L1 is “unable to elicit a detectable response”.

(Values after patent EP2832347B1, “Method for identifying patchouli odorant materials” (Takasago International Corporation, priority 2013, dated 2015).)
